Reference: PubChem BioAssay AID1963431 (Molecular Pharmacology Branch, DTP, NCI, 2024)

Test system: Rh18 complex spheroid viability, percent test/control
Assay: Anticancer human tumor Rh18 cell line growth inhibition [Asc];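 also: spheroids exposed to compound for 7 days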;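 as to viability, T/C: 100% = DMSO vehicle control wells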
Conditions: for IC50: curve of first compound; for viability, T/C: stronger effect = lower value
How it was run: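 Tumor cells were grown as complex spheroids with human endothelial cells (HUVEC) and human mesenchymal stem cells as stroma. Agents were tested alone and in combination, in half-log steps down from the clinical Cmax, or from 10 microM where Cmax was unknown.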

[1] = second compound 0.1 µM, first compound 0.00316 µM
[2] = second compound 0.1 µM, first compound 0.01 µM
[3] = second compound 0.1 µM, first compound 0.0316 µM
[4] = second compound 0.1 µM, first compound 0.1 µM
[5] = second compound 0.1 µM, first compound 0.316 µM
[6] = second compound 0.1 µM, first compound 1 µM
[7] = second compound 0.316 µM, first compound 0.00316 µM
[8] = second compound 0.316 µM, first compound 0.01 µM
[9] = second compound 0.316 µM, first compound 0.0316 µM
[10] = second compound 0.316 µM, first compound 0.1 µM
[11] = second compound 0.316 µM, first compound 0.316 µM
[12] = second compound 0.316 µM, first compound 1 µM
[13] = second compound 1 µM, first compound 0.00316 µM
[14] = second compound 1 µM, first compound 0.01 µM
[15] = second compound 1 µM, first compound 0.0316 µM
[16] = second compound 1 µM, first compound 0.1 µM
[17] = second compound 1 µM, first compound 0.316 µM
[18] = second compound 1 µM, first compound 1 µM
[19] = second compound 3.16 µM, first compound 0.00316 µM
[20] = second compound 3.16 µM, first compound 0.01 µM
[21] = second compound 3.16 µM, first compound 0.0316 µM
[22] = second compound 3.16 µM, first compound 0.1 µM
[23] = second compound 3.16 µM, first compound 0.316 µM
[24] = second compound 3.16 µM, first compound 1 µM
[25] = second compound 10 µM, first compound 0.00316 µM
[26] = second compound 10 µM, first compound 0.01 µM
[27] = second compound 10 µM, first compound 0.0316 µM
[28] = second compound 10 µM, first compound 0.1 µM
[29] = second compound 10 µM, first compound 0.316 µM
[30] = second compound 10 µM, first compound 1 µM

How did the IC50 (second compound 0.1 µM) turn out when CCN1CCN(Cc2ccc(Nc3ncc(F)c(-c4cc(F)c5nc(C)n(C(C)C)c5c4)n3)nc2)CC1 + Cc1c(S(C)(=O)=O)c(-c2cc(F)cc(N3CCN(c4ccc(NS(=O)(=O)c5ccc(NC(CCN6CCC(C(=O)OCCCP(=O)(O)O)CC6)CSc6ccccc6)c(S(=O)(=O)C(F)(F)F)c5)cc4)CC3)c2)c(-c2ccc(Cl)cc2)n1C(C)C was run?
Its IC50 is less than 3.16 nM.

What about the IC50 (second compound 0.316 µM) of the same compound?
Its IC50 is less than 3.16 nM.

What about the IC50 (second compound 1 µM) of the same compound?
The IC50 was less than 3.16 nM.

And the IC50 (second compound 3.16 µM)?
Its IC50 is less than 3.16 nM.

And the IC50 (second compound 10 µM)?
Its IC50 is less than 3.16 nM.

What about the viability, T/C [1] of the same compound?
The viability, T/C was 12.9%.

And the viability, T/C [2]?
The viability, T/C was 10.8%.

And the viability, T/C [3]?
The viability, T/C was 12.1%.

What about the viability, T/C [4] of the same compound?
The viability, T/C was 10.3%.

And the viability, T/C [5]?
Its viability, T/C is 17.6%.

And the viability, T/C [6]?
The viability, T/C was 16.5%.

And the viability, T/C [7]?
Its viability, T/C is 9.27%.

What about the viability, T/C [8] of the same compound?
The viability, T/C was 8.57%.

What about the viability, T/C [9] of the same compound?
Its viability, T/C is 8.42%.

And the viability, T/C [10]?
Its viability, T/C is 8.33%.

And the viability, T/C [11]?
The viability, T/C was 9.57%.

And the viability, T/C [12]?
The viability, T/C was 13.1%.

And the viability, T/C [13]?
Its viability, T/C is 7.77%.

And the viability, T/C [14]?
The viability, T/C was 7.58%.

And the viability, T/C [15]?
The viability, T/C was 7.78%.

What about the viability, T/C [16] of the same compound?
The viability, T/C was 7.11%.

What about the viability, T/C [17] of the same compound?
Its viability, T/C is 8.27%.

And the viability, T/C [18]?
Its viability, T/C is 11.2%.

What about the viability, T/C [19] of the same compound?
The viability, T/C was 5.69%.

And the viability, T/C [20]?
Its viability, T/C is 6.84%.

And the viability, T/C [21]?
Its viability, T/C is 6.29%.

And the viability, T/C [22]?
The viability, T/C was 6.51%.

What about the viability, T/C [23] of the same compound?
Its viability, T/C is 6.86%.

What about the viability, T/C [24] of the same compound?
Its viability, T/C is 8.35%.

What about the viability, T/C [25] of the same compound?
The viability, T/C was 4.28%.

What about the viability, T/C [26] of the same compound?
Its viability, T/C is 4.29%.

And the viability, T/C [27]?
Its viability, T/C is 5.21%.

And the viability, T/C [28]?
The viability, T/C was 7.08%.

And the viability, T/C [29]?
The viability, T/C was 6.28%.

What about the viability, T/C [30] of the same compound?
The viability, T/C was 10.4%.

What does the source list for COc1c(OCCCN2CCOCC2)ccc2c3n(c(=NC(=O)c4cnc(N)nc4)nc12)CCN3 + Cc1c(S(C)(=O)=O)c(-c2cc(F)cc(N3CCN(c4ccc(NS(=O)(=O)c5ccc(NC(CCN6CCC(C(=O)OCCCP(=O)(O)O)CC6)CSc6ccccc6)c(S(=O)(=O)C(F)(F)F)c5)cc4)CC3)c2)c(-c2ccc(Cl)cc2)n1C(C)C?
IC50 (second compound 0.1 µM): < 3.16 nM; IC50 (second compound 0.316 µM): < 3.16 nM; IC50 (second compound 1 µM): < 3.16 nM; IC50 (second compound 3.16 µM): < 3.16 nM; IC50 (second compound 10 µM): < 3.16 nM; viability, T/C [1]: 17.1%; viability, T/C [2]: 9.25%; viability, T/C [3]: 5.96%; viability, T/C [4]: 2.81%; viability, T/C [5]: 0.62%; viability, T/C [6]: 0.45%; viability, T/C [7]: 7.85%; viability, T/C [8]: 8.34%; viability, T/C [9]: 4.97%; viability, T/C [10]: 1.98%; viability, T/C [11]: 0.56%; viability, T/C [12]: 0.49%; viability, T/C [13]: 8.6%; viability, T/C [14]: 6.08%; viability, T/C [15]: 4.68%; viability, T/C [16]: 1.06%; viability, T/C [17]: 0.44%; viability, T/C [18]: 0.48%; viability, T/C [19]: 5.39%; viability, T/C [20]: 5.31%; viability, T/C [21]: 3.11%; viability, T/C [22]: 0.45%; viability, T/C [23]: 0.35%; viability, T/C [24]: 0.46%; viability, T/C [25]: 3.54%; viability, T/C [26]: 5%; viability, T/C [27]: 2.62%; viability, T/C [28]: 0.51%; viability, T/C [29]: 0.53%; viability, T/C [30]: 0.49%
